The text below walks through data of ChEMBL document CHEMBL1124898, “Novel agents effective against solid tumors: the diarylsulfonylureas. Synthesis, activities, and analysis of quantitative structure-activity relationships” (J Med Chem, 1990).

One test has as its system CCRF-CEM. The experiment in a line: Concentration required to inhibit growth of CCRF-CEM cells in culture for 72 hr to 50% of control growth. It counts as functional, cell-based. The settings on record: Homo sapiens.
Test [1] is described as follows: Antitumor activity in vivo against the 6C3HED lymphosarcoma, dosed for 8 days at 300 mg/kg. The note with it: Mus musculus, 192 h.

≈ marks a conversion by molar mass, not a printed value.

For orientation: IC50 means the point on the concentration scale where inhibition reaches its midpoint. For orientation: inhibition in vivo means the change of the read-out against control, counted positive when it falls. A high value points to strong suppression. On to `O=C(Nc1ccc(Br)cc1)NS(=O)(=O)c1ccc2c(c1)CCC2`, for which the IC50 in the test with CCRF-CEM came out at 17.6 µg/mL (≈ 44.5 µM). Besides, in test [1], the inhibition in vivo at 300 mg/kg came out at 92%.

In turn, `CCCCOC(=O)c1ccc(NC(=O)NS(=O)(=O)c2ccc(C)cc2)cc1` showed an IC50 with CCRF-CEM above 20 µg/mL. Besides, the inhibition in vivo at 300 mg/kg in test [1] is 0%.

In the case of `Cc1ccc(S(=O)(=O)NC(=O)Nc2cccc3ccccc23)cc1`, in the test on CCRF-CEM, the IC50 is above 20 µg/mL. This compound also gave an inhibition in vivo at 300 mg/kg in test [1] of 0%.

In the case of `Cc1ccc(S(=O)(=O)NC(=O)Nc2cccc(Cl)c2)cc1`, in the test on CCRF-CEM, the IC50 is above 20 µg/mL. This compound also gave an inhibition in vivo at 300 mg/kg in test [1] of 13%.

For the compound `Cc1ccc(S(=O)(=O)NC(=O)Nc2ccc3ccccc3c2)cc1`, it took 28 µg/mL (≈ 82.3 µM) to reach half-maximal inhibition in the test with CCRF-CEM (IC50). For the same compound, in test [1], 300 mg/kg produced 5% inhibition in vivo.

In the case of `Cc1ccc(S(=O)(=O)NC(=O)Nc2ccc(S(C)(=O)=O)cc2)cc1`, the IC50 in the test on CCRF-CEM was above 20 µg/mL. Also, the inhibition in vivo at 300 mg/kg in test [1] worked out at 7%.

In the test on CCRF-CEM, `Cc1ccc(S(=O)(=O)NC(=O)Nc2ccc(N(C)C)cc2)cc1` gave an IC50 above 20 µg/mL. This compound returned an inhibition in vivo at 300 mg/kg in test [1] of 51%.

For the compound `Cc1ccc(S(=O)(=O)NC(=O)Nc2ccc(Cl)c(C)c2)cc1`, the IC50 in the test on CCRF-CEM was 7.3 µg/mL (≈ 21.5 µM). This compound also came in with an inhibition in vivo at 300 mg/kg in test [1] of 85%.

In the test on CCRF-CEM, `COC(=O)c1ccc(S(=O)(=O)NC(=O)Nc2ccc(Cl)cc2)cc1` returned an IC50 of 17.4 µg/mL (≈ 47.2 µM). The inhibition in vivo at 300 mg/kg in test [1] stood at 49%.

Regarding `O=C(Nc1ccc(F)cc1)NS(=O)(=O)c1ccc(Cl)cc1`, 14.5 µg/mL (≈ 44.1 µM) corresponded to half-maximal inhibition in the test with CCRF-CEM (IC50). Further, in test [1], the inhibition in vivo at 300 mg/kg is 74%.

For the compound `O=C(Nc1ccc(Cl)cc1)NS(=O)(=O)c1ccc(CO)cc1`, in the test on CCRF-CEM, the IC50 is above 20 µg/mL. The inhibition in vivo at 300 mg/kg in test [1] amounted to 15%.

In the test on CCRF-CEM, `CSc1cccc(NC(=O)NS(=O)(=O)c2ccc(C)cc2)c1` showed an IC50 above 20 µg/mL. At 300 mg/kg the inhibition in vivo in test [1] was 20%.

In turn, `O=C(Nc1ccc(Cl)cc1)NS(=O)(=O)c1ccc([N+](=O)[O-])cc1` came in with an IC50 with CCRF-CEM of 12.1 µg/mL (≈ 34 µM). In test [1], 300 mg/kg produced 70% inhibition in vivo.

`Cc1ccc(S(=O)(=O)NC(=O)Nc2ccc3[nH]ncc3c2)cc1` registered an IC50 in the test with CCRF-CEM above 20 µg/mL. This compound came in with an inhibition in vivo at 300 mg/kg in test [1] of 0%.

In the case of `Cc1ccc(S(=O)(=O)NC(=O)NC2CCCCC2)cc1` [GLYCYCLAMIDE], the IC50 with CCRF-CEM was above 20 µg/mL. Testing at 300 mg/kg in test [1] gave an inhibition in vivo of 56%.

For `Cc1ccc(S(=O)(=O)NC(=O)Nc2ccc(Cl)cn2)cc1`, the IC50 with CCRF-CEM is above 20 µg/mL. This compound also had an inhibition in vivo at 300 mg/kg in test [1] of 43%.

`Cc1ccc(S(=O)(=O)NC(=O)Nc2ccc(OCc3ccccc3)cc2)cc1` had an IC50 in the test with CCRF-CEM above 20 µg/mL. This compound showed an inhibition in vivo at 300 mg/kg in test [1] of 0%.

`Cc1ccc(S(=O)(=O)NC(=O)Nc2cccc(Cl)c2Cl)cc1` showed an IC50 with CCRF-CEM above 20 µg/mL. This compound also yielded an inhibition in vivo at 300 mg/kg in test [1] of 37%.

For the compound `Cc1ccc(S(=O)(=O)NC(=O)Nc2ccc(F)cc2)cc1`, in the test with CCRF-CEM, the IC50 was found to be 17.4 µg/mL (≈ 56.4 µM). For the same compound, the inhibition in vivo at 300 mg/kg in test [1] was found to be 95%.

In the test on CCRF-CEM, `Cc1ccc(S(=O)(=O)NC(=O)Nc2cc(Cl)c(Cl)cc2C)cc1` returned an IC50 of 16 µg/mL (≈ 42.9 µM). In addition, in test [1], the inhibition in vivo at 300 mg/kg was 15%.

`O=C(Nc1ccc(Cl)cc1)NS(=O)(=O)c1cccnc1` registered an IC50 in the test with CCRF-CEM of 7.1 µg/mL (≈ 22.8 µM). The inhibition in vivo at 300 mg/kg in test [1] is 3%.

Take `Cc1ccc(S(=O)(=O)NC(=O)Nc2ccccc2Cl)cc1`: the IC50 in the test on CCRF-CEM was above 20 µg/mL. Also, in test [1], 300 mg/kg produced 1% inhibition in vivo.

`CCCCc1ccc(NC(=O)NS(=O)(=O)c2ccc(C)cc2)cc1` displayed an IC50 in the test on CCRF-CEM of 19.7 µg/mL (≈ 56.9 µM). In test [1], this compound had an inhibition in vivo at 300 mg/kg of 8%.

As for `Cc1ccc(S(=O)(=O)NC(=O)Nc2cc(C)cc(C)c2)cc1`, the IC50 in the test with CCRF-CEM was above 20 µg/mL. This compound also returned an inhibition in vivo at 300 mg/kg in test [1] of 9%.

In turn, `O=C(Nc1ccc(Cl)cc1)NS(=O)(=O)c1ccc2c(c1)OCO2` displayed an IC50 in the test with CCRF-CEM of 9.1 µg/mL (≈ 25.7 µM). The compound also yielded an inhibition in vivo at 300 mg/kg in test [1] of 100%.

In turn, `CCc1cccc(NC(=O)NS(=O)(=O)c2ccc(C)cc2)c1` registered a half-inhibitory concentration (IC50) in the test on CCRF-CEM above 20 µg/mL. In test [1], the inhibition in vivo at 300 mg/kg worked out at 0%.

In the case of `O=C(Nc1ccc(Cl)cc1)NS(=O)(=O)c1ccc2c(c1)CCCC2`, the IC50 in the test on CCRF-CEM was found to be 14.6 µg/mL (≈ 40 µM). In test [1], this compound yielded an inhibition in vivo at 300 mg/kg of 70%.
